Assays:
[1] = tested on: living oral carcinoma cells (SqCHN); assay: Selective toxicity, cell killing of carcinoma cells over 8 days; assay type: cell-based; details: for selective toxicity towards carcinoma cells: carcinoma cells compared to normal oral epithelial cells; for cell death of carcinoma cells: incubated with dye fraction, washed, observed over 8 days
Procedure: (§1) The compounds represented by peaks 5, 6, 7 and 8, obtained during the fractionation of the toluidine blue O, are analyzed for their selective toxicity towards living oral carcinoma cells (SqCHN) compared to living normal oral epithelial cells. Separate cultures of squamous carcinoma cells and normal epithelial cells are incubated with the different dye fractions and then washed with dye-free medium. The cells are then re-incubated in growth medium and observed over a period of 8 days to determine the extent of cell killing. The compound of peak 6 results in 95% cell death of carcinoma cells, compared to only about 20% killing of normal cells.

[2] = tested on: living normal oral epithelial cells; assay: Selective toxicity, cell killing of normal cells over 8 days; assay type: cell-based; details: incubated with dye fraction, washed, observed over 8 days
Procedure: as §1

[3] = tested on: head and neck and lung carcinomas implanted in Balb-C mice; assay: In-vivo delay of tumor growth and tumor regression assay; details: tumor-bearing Balb-C mice
Procedure: (§2) The therapeutic characteristics of the compounds of peaks 6 and 8 are determined by further in-vitro tests, conducted in the manner of Example 8, using other isolates of carcinoma cells and normal epithelial cells. The testing profile includes other squamous carcinomas of the head and neck, esophagus, lung, cervix and skin, as well as other types of cancers, including adenocarcinomas, lymphomas and sarcomas. In-vivo “delay of tumor growth” and “tumor regression assay” tests using tumor-bearing animals, including head and neck and lung carcinomas implanted in Balb-C mice, are made to analyze the in-vivo therapeutic benefit of these compounds.

[4] = tested on: other squamous carcinomas, adenocarcinomas, lymphomas and sarcomas; assay: Further in-vitro tests with other isolates of carcinoma cells and normal epithelial cells; assay type: cell-based; details: conducted in the manner of Example 8
Procedure: as §2

carcinoma cells = assay: Uptake and retention of mitochondrial marking agents in living carcinoma cells; assay type: cell-based; details: 5 minute incubation, rinsed twice with 1% acetic acid, 2-butanol extraction, spectrophotometry
Procedure: Different concentrations of the various cationic marking agents, at 100, 50, 10 and 1 μg/ml are prepared in RPMI medium complete with 20% fetal calf serum, 1 mM glutamine, hydrocortisone, insulin, transferrin, estradiol, selenium and growth hormone.
The carcinoma cells are incubated at 37EC in tissue culture incubators with 5% CO2 and 95% relative humidity, for 5 minutes with each agent and concentration there and then rinsed twice using 2 minute incubations with 1% acetic acid. After incubation and rinsing, the cells are harvested, at 30 min., 1 hour, 2 hours, 4 hours and 8 hours. The cells are then extracted with 2-butanol and analyzed by spectrophotometry for quantitation of the marking agent.

## CNc1ccc2nc3ccc(N)c(C)c3[s+]c2c1 [peak 5]
[1]
  selective toxicity towards carcinoma cells: do not exhibit the same selective toxicity

## CNc1ccc2nc3cc(C)c(N)cc3[s+]c2c1 [peak 6]
[1]
  selective toxicity towards carcinoma cells: selectively toxic towards carcinoma cells
  cell death of carcinoma cells: 95%
[2]
  killing of normal cells: about 20%
[3]
  selective toxicity, in-vivo therapeutic benefit: confirm the selective toxicity
[4]
  selective toxicity to the wider variety of cancer cell types, in vitro: confirm the selective toxicity

## Cc1c(N)ccc2nc3ccc(N(C)C)cc3[s+]c12 [peak 7]
[1]
  selective toxicity towards carcinoma cells: do not exhibit the same selective toxicity

## Cc1cc2nc3ccc(N(C)C)cc3[s+]c2cc1N [peak 8]
[1]
  selective toxicity towards carcinoma cells: selectively toxic towards carcinoma cells
  cell death of carcinoma cells: 89%
[2]
  killing of normal cells: about 20%
[3]
  selective toxicity, in-vivo therapeutic benefit: confirm the selective toxicity
[4]
  selective toxicity to the wider variety of cancer cell types, in vitro: confirm the selective toxicity

## Cc1cc2nc3ccc(N(C)C)cc3[s+]c2cc1N.[Cl-] [toluidine blue O]
Carcinoma cells
  saturation concentration: ≥ 10 µg/mL

— US20030017158A1, “Method for detecting and killing epithelial cancer cells” (priority 2002, published 2003)
